From patent US20080021045A1, “7-Amino-5-Halopyrazolopyrimidines with a Fungicidal Action” (BAYER CROPSCIENCE AKTIENGESELLSCHSFT, priority 2003, published 2008)

experiment: logP determination by HPLC (EEC Directive 79/831 Annex V. A8); assay type: physicochemical; conditions: gradient method, acetonitrile/0.1% aqueous phosphoric acid

chromatographic logP	SMILES
4.59	CCC(C)c1c(Cl)nc2c(C#N)cnn2c1NC(C)C(C)C (stereo not drawn) [Example 1, 3-cyano-5-chloro-6-(sec-butyl)-7-[(S+)-3-methyl-2-butylamino]pyrazolo[1,5-a]pyrimidine]
4.17	CCC(C)c1c(Cl)nc2c(C=O)cnn2c1NC(C)C(C)C (stereo not drawn) [Example 2, 3-formyl-5-chloro-6-(sec-butyl)-7-(3-methyl-2-butylamino)pyrazolo[1,5-a]pyrimidine]
3.27	CCC(C)c1c(Cl)nc2c(C#N)cnn2c1Cl (stereo not drawn) [Example 30, 3-cyano-5,7-dichloro-6-(sec-butyl)pyrazolo[1,5-a]pyrimidine]
